According to patent US12377095B2, “Use of ligustrazine nitrone derivatives in treatment and prevention of diabetic complication diseases” (QINGDAO HAILAN PHARMACEUTICALS CO., LTD., priority 2019, dated 2025):

Tests used:
STZ-induced SHR rats [1] = assay: HE kidney morphology of STZ-induced SHR rats; format: in vivo, rat; conditions: 60 mg/kg
Description: (§1) 6 W-age SHR rats were abstained from food but not water for 12 h before injection, and then intraperitoneally injected with 55 mg/kg STZ after weighing (STZ required for fast injection, to be completed within 10 min), then put back to the cage to ensure that rat has sufficient drinking water in the period of 24 h, and the rats of normal control group were injected with citric acid buffer (pH 4.5) in the same volume. After 3 weeks of STZ injection, retinal venous blood was collected, and blood glucose ≥16.7 mmol/L was used as a molding standard, where the model of SHR rats that meet the above criteria is considered successful.
(§2) The route of administration is intragastrical, TBN is administered twice a day (fixed at 9:00-10:00 am and 3:00-4:00 pm), and Losartan is administered once a day (fixed at 9:00-10:00 am), continuously for 6 weeks.
(§3) The process is the same as in Example 9.

db/db mice = assay: Serum EPO content of db/db mice; format: in vivo, mouse; design: serum EPO content: unit not given here; conditions: for serum EPO content: 6 weeks, db/db group 257.19±67.80 ng/L
Source text: db/db mice are congenital obese type 2 DKD mice with spontaneous mutations in the leptin receptor (Leptin receptor, Lepr) due to a point mutation in the leptin receptor gene GT located on chromosome 4. The course of polyphagia, polyuria, diabetes and hyperglycemia is similar to that of humans, and it is currently the most widely used type 2 spontaneous animal model of DKD. The db/db mice have a series of complications with the aggravation of diabetes. The main pathological changes of renal tissue are the expansion of the glomerular mesangial interstitium, the thickening of the glomerular basement membrane, and the excessive accumulation of extracellular matrix. However, the glomerular mesangium of db/db mice changes relatively slowly, and the glomerular mesangium will not be dissolved or nodular glomerulosclerosis, and there is no progressive renal insufficiency.
Six-week-old db/db mice were purchased, and start the administration after adaptive feeding for 1 week (i.e., 7-week-old). TBN is administered twice a day (fixed by starting from 9:00-10:00 am and 3:00-4:00 pm, with an interval of 6 hours), and the positive control drug Losartan was administered once a day (fixed at 9:00-10:00 am) for 6 weeks.
At the end of the experiment, after rats were anesthetized, the blood was taken from the abdominal aorta, allowed to stand for 1 h, centrifuged at 3000 rmp for 10 min and with the supernatant collected, and serum erythropoietin levels were measured according to the kit instructions.

STZ-induced DKD rats [2] = assay: Body weight, water intake and food intake of STZ-induced DKD rats; format: in vivo, rat
Description: (§4) SD rats (200±10 g) were used as model animals, which were fasted for 12 h before injection. STZ was dissolved in citrate buffer at 1% concentration, and rats were fasted and intraperitoneally injected with 55 mg/kg STZ and placed in the cage, the rats being ensured with adequate water intake for 24 h. STZ injections need to be fast and complete within 10 minutes of injection. The normal control group was injected with an equal volume of pH 4.5 citric acid-sodium citrate buffer. The state of the animals (multiple drinking and polyuria) was observed. After 3 weeks of STZ injection, blood was collected from the tail vein, and fasting blood glucose ≥16.7 mmol/L was measured as the standard for diabetic nephropathy in rats.
(§5) DKD rats were randomly assigned to 6 groups and given with different drugs. After 6 weeks of administration, the experiment was terminated and the protective effect of the drug on DKD rats was observed.
The general condition and body weight changes after rat modeling were observed weekly. The general conditions include the activity, mental state, coat color, diet, water intake and urine volume of the rats. The amount of water and the amount of feed were recorded weekly.

STZ-induced SHR rats [3] = assay: PAS staining, glomerular hardening of STZ-induced SHR rats; format: in vivo, rat; conditions: 60 mg/kg
Description: as §1, §2, §3

[4] = tested on: diabetic neuropathy model rats; assay: Thermal radiation stimulation in diabetic neuropathy model rats; format: in vivo, rat; conditions: TBN 30 mg/kg twice a day, 4 weeks of administration (8 weeks after STZ), P<0.05
Description: (§6) Modeling method: STZ was weighed and transferred to a centrifuge tube, wrapped with aluminum foil, kept away from light, and stored at −20° C. STZ sodium citrate solution is prepared when it is in need to use. The rats were fasted without water for 12 hours before injection. After weighing, the rats were injected with 55 mg/kg STZ intraperitoneally (STZ needs to be injected quickly, and the injection was completed within 10 minutes), and then returned to the cage to ensure that the rats had sufficient drinking water for 24 hours. Rats were injected with an equal volume of citrate buffer (pH 4.5). Four weeks after STZ injection, blood was collected from the tail vein, and the rats with blood glucose less than 16.7 mmol/L were eliminated; the taillick threshold temperature was increased, and the mechanical withdrawal threshold (MWT) was decreased, as the standard of a successful DPN model.
The animals were randomly divided into 3 groups (n=7), namely the normal control group, the model group, and the TBN (30 mg/kg) group. The normal group and the model group were injected with an equal volume of normal saline, and TBN was administered twice a day (fixed at 9:00-10:00 am and 3:00-4:00 pm), continuously for 4 weeks. […]

[5] = tested on: diabetic neuropathy model rats; assay: Mechanical pain threshold (von Frey) in diabetic neuropathy model rats; format: in vivo, rat; conditions: TBN 30 mg/kg twice a day
Description: as §6
The animals were randomly divided into 3 groups (n=7), namely the normal control group, the model group, and the TBN (30 mg/kg) group. The normal group and the model group were injected with an equal volume of normal saline, and TBN was administered twice a day (fixed at 9:00-10:00 am and 3:00-4:00 pm), continuously for 4 weeks.
Experiment for detecting mechanical pain threshold: In a quiet environment, the rats were individually placed in a porous steel wire cage. […]

STZ-induced SHR rats [6] = assay: Body weight of STZ-induced SHR rats; format: in vivo, rat; conditions: 60 mg/kg twice/day, 6 weeks
Description: as §1, §2
The general situation and weight changes are observed after the establishment of the rat model, and the general situation includes the activity of rats, mental state, hair color, diet, drinking water and urine volume, etc., and water consumption and feed weights were recorded each week.

STZ-induced DKD rats [7] = assay: Kidney index of STZ-induced DKD rats; format: in vivo, rat; conditions: after 6 weeks of administration
Description: as §4, §5
After 6 weeks of administration, the kidney tissue was uniformly separated by an autoclave surgical instrument, and washed with normal saline. After the filter paper was blotted, the fine balance was weighed, and then stored in a refrigerator at −80° C. for use. Kidney index (relative to kidney weight) is kidney weight (mg)/body weight (g)[…].

SMILES: Cc1nc(C)c(/C=[N+](\[O-])C(C)(C)C)nc1C [TBN]
- renal pathological changes (H&E) (STZ-induced SHR rats [1]): improvement
- serum EPO content (db/db mice; 10 mg/kg): 265.04±79.32
- serum EPO content (db/db mice; 30 mg/kg): 288.80±36.78
- increase in serum EPO content compared with positive control drug (db/db mice; each dose group of TBN): stronger than that of the positive control drug
- serum EPO level (db/db mice; spontaneous db/db mice, TBN administration): tendency to increase
- body weight (STZ-induced DKD rats [2]; STZ-induced diabetic nephropathy rats, FIG. 1a): no effect
- water intake (STZ-induced DKD rats [2]; vs model group, FIG. 1b): significantly lower
- food intake (STZ-induced DKD rats [2]; vs model group, FIG. 1c): significantly lower
- degree of glomerular hardening (PAS) vs SHR-STZ group (STZ-induced SHR rats [3]): significantly lower
- pain threshold of heat stimulation (hindlimb lifting latency) vs model group [4]: increase
- mechanical pain threshold vs model group ([5]; 2 weeks after administration (6 weeks after STZ)): no statistically significant difference
- mechanical pain threshold vs model group ([5]; 4 weeks after administration (8 weeks after STZ), P<0.05): increased
- body weight vs SHR-STZ group (STZ-induced SHR rats [6]): increased significantly
- kidney index (STZ-induced DKD rats [7]): significantly reduced
